Experimental data from patent publication US9957214B2, “Multifunctional radical quenchers” (ARIZONA BOARD OF REGENTS ON BEHALF OF ARIZONA STATE …, priority 2012, dated 2018).

Columns and labels:
[1] = system: differentiated SH-SY5Y cells; test: Neuroprotection against Aβ 1-42 oligomer induced cytotoxicity (WST-1); type: cell-based, human; details: Aβ 1-42 oligomers 2.5 μM, 48 h
Method: FIG. 8. Effect of nitrogen-containing 1,4-benzoquinone 40 and geldanamycin on Aβ 1-42 induced neurotoxicity in differentiated SH-SY5Y cells.
The cytotoxic effect of Aβ 1-42 oligomers (2.5 μM) on differentiated SH-SY5Y cells was evaluated in presence and absence of the test compounds. Sequential treatment of the human SH-SY5Y neuroblastoma cell line with retinoic acid and brain-derived neurotrophic factor (BDNF) generates nearly pure populations of human neuron-like cells, thus providing a model for the study of neuronal differentiation and neuroprotection as previously described, with some modifications (Encinas et al. (2000) J. Neurochem. 75, 991-1003). […] The plates were incubated at 37° C. in an atmosphere having 95% humidity and 5% CO2 for 48 h and then cell viability was measured using a WST-1 Kit (Roche Diagnostics). […] Color intensity was measured with a 96-well plate at 450 nm using a SpectraMax M5 microplate reader (Molecular Devices, Sunnyvale, Calif.). Results are expressed as percentage of viable cells relative to untreated control after subtracting background. Data are expressed as means±S.E.M. (n=3).
Synthetic human Aβ 1-42 was purchased from AnaSpec (San Jose, Calif.). […] Aβ 1-42 peptide content was determined by the method of bicinchoninic acid assay (micro-BCA kit, Pierce) using BSA as reference.

FRDA lymphocytes = test: Preservation of mitochondrial membrane potential (TMRM flow cytometry) in DEM-treated FRDA lymphocytes; type: cell-based
Method: FIG. 3. Effect of nitrogen-containing 1,4-benzoquinone derivatives on mitochondrial membrane potential of cultured FRDA cells. Representative flow cytometric two dimensional color density dot plot analyses of mitochondrial membrane potential Δψm in FRDA lymphocytes stained with TMRM and analyzed using the FL2-H channel as described in Experimental Section. The cells were washed twice in phosphate buffered saline, and suspended in phosphate buffered saline containing 20 mM glucose. The percentage of cells with intact Δψm is indicated in the top right quadrant of captions. In each analysis, 10,000 events were recorded. Data are expressed as means±SEM of three independent experiments run in duplicate.
Mitochondrial membrane potential was measured using two different fluorescent dyes, TMRM and JC-1. Δψm was determined as previously described by staining FRDA lymphocyte cells with TMRM (Molecular Probes, Eugene, Oreg.) and analyzing fluorescence emission by flow cytometry in detection channel 2 (FL2-H) (Khdour et al. (2011) Pharmaceut. Res. 28, 2896-2909). Briefly, FRDA lymphocytes were pre-treated with or without the test compounds for 16 h. The cells were treated with 5 mM DEM for 140 min, collected by centrifugation at 300×g for 3 min and then washed twice with phosphate buffered saline. The cells were resuspended in PBS containing […] and incubated at 37° C. in the dark for 15 min with 250 nM TMRM. Cells were collected by centrifugation at 300×g for 3 min and were then washed with phosphate buffered saline. The samples were analyzed immediately by flow cytometry using a 488 nm excitation laser and the FL2-H channel. The results obtained were verified in three independent experiments. […] In each analysis, 10,000 events were recorded. […] The following day, cells were treated with tested compounds and incubated for an additional 12 h before treatment with 1 mM BSO. Δψm was assessed after 24 h using JC-1 Mitochondrial Membrane Potential Detection Kit (Biotium, Inc) following the manufacturer instruction. Glass cover slips were rinsed with phosphate-buffered saline and mounted onto slides, and images were recorded and analyzed with a Zeiss AxioCam MRm and AxioVision 3.1 software (Carl Zeiss Goettingen, Germany) on a Zeiss Axiovert 200 M inverted microscope, equipped with a 40× oil immersion objective.
The ability of the test compounds to preserve mitochondrial membrane potential under conditions of oxidative stress was studied. […] Changes in mitochondrial membrane potential (Δψm) were measured using two different fluorescent dyes, tetramethylrhodamine methyl ester (TMRM) and 5,5′,6,6′-tetrachloro-1,1′,3,3′-tetraethylbenzimidazolocarbocyanine iodide (JC-1). […] The fluorescence signal of TMRM can be directly co-related to Δψm across the inner mitochondrial membrane. […]

[2] = system: Friedreich's ataxia lymphoblast cell line GM15850; test: Cytoprotection (trypan blue exclusion assay) of DEM-treated FRDA lymphocytes; type: cell-based; details: Homo sapiens, GM15850; 5 μM; DEM alone 18 ± 10% viability; read-out: Cytoprotection (cell viability, % of untreated control)
Method: Cell viability was determined by trypan blue exclusion assay in Friedreich's ataxia lymphoblast cell line GM15850 (Coriell Institute, New Jersey). This technique was used to assess the cytoprotective effects of the tested compounds in cultured cells treated with DEM to induce cell death by GSH depletion. The viability of DEM-treated FRDA cells was determined by their ability to exclude the dye trypan blue. Viable cells exclude trypan blue, whereas non-viable cells take up the dye and stain blue. Briefly, FRDA lymphocytes were grown in RPMI 1640 medium (Gibco) supplemented with 15% fetal calf serum, 2 mM glutamine (HyClone) and 1% penicillin-streptomycin mix (Cellgro). Cells were seeded at a density of 5×10^5 cells/mL and treated with different concentrations of the indicated compounds. Cells were incubated at 37° C. in a humidified atmosphere of 5% CO2 in air for 17 h. After pre-incubation, the cells were treated with 5 mM DEM. Cell viability was determined by staining cells with 0.4% trypan blue using a hemacytometer. At least 500 cells were counted in each experimental group. At the time of assay, <20% of DEM treated cells were viable (trypan blue negative), whereas in non DEM-treated control, >90% cells were viable. Cell viability was expressed as the percentage of control. Data are expressed as means±S.E.M. (n=3).
Cell viability was determined by trypan blue exclusion assay in Friedreich's ataxia lymphoblast cell line GM15850 (Coriell Institute). This technique was used to assess the cytoprotective effects of the compounds in cultured cells treated with diethyl maleate (DEM) to induce cell death by glutathione (GSH) depletion. The viability of DEM-treated FRDA cells was determined by their ability to exclude the dye trypan blue. Viable cells exclude trypan blue, whereas non-viable cells take up the dye and stain blue. […] Benzoquinone analogue 9 afforded greater cyoprotection to FRDA lymphocytes at 5 μM concentration than did the tert-butyl ester 6 (74 vs 50%).

[3] = molecular target: bovine heart mitochondrial complex I (Bos taurus, UniProt P03887+P17694+P42026); test: Complex I (NADH-Q1 oxidoreductase) inhibition in submitochondrial particles; type: biochemical; details: submitochondrial particles, 30° C.
Sequence of bovine heart mitochondrial complex I (P25708 21-464): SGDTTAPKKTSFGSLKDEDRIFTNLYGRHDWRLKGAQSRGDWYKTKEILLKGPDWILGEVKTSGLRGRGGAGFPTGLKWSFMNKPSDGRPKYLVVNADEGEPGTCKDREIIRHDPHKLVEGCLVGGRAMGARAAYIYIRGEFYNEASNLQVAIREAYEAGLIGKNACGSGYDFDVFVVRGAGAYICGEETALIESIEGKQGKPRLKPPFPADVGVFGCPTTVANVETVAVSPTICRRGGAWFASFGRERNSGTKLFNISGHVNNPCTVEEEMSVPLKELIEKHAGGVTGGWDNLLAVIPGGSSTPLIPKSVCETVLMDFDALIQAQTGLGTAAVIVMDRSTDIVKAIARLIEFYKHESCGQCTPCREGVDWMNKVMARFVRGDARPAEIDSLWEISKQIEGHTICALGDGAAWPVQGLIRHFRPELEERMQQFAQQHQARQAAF
Sequence of bovine heart mitochondrial complex I (P42026 38-216): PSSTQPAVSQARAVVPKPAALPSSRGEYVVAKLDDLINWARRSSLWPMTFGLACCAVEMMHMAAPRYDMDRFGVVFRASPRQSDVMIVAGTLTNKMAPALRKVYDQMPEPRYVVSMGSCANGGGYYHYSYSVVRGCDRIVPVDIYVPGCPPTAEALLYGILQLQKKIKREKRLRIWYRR
Sequence of bovine heart mitochondrial complex I (P17694 34-463): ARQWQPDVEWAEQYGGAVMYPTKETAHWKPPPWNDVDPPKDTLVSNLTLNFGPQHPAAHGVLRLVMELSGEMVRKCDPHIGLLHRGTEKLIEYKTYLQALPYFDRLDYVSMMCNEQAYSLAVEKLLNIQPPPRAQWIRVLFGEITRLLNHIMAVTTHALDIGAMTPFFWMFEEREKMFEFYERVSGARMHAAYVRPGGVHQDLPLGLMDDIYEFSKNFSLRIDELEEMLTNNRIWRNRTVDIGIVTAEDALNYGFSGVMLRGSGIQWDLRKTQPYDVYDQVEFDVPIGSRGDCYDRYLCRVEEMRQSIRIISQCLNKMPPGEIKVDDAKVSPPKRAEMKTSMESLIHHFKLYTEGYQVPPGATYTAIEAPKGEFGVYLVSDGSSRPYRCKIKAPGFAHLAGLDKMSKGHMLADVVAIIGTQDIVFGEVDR
Sequence of bovine heart mitochondrial complex I (P15690 24-727, further chain): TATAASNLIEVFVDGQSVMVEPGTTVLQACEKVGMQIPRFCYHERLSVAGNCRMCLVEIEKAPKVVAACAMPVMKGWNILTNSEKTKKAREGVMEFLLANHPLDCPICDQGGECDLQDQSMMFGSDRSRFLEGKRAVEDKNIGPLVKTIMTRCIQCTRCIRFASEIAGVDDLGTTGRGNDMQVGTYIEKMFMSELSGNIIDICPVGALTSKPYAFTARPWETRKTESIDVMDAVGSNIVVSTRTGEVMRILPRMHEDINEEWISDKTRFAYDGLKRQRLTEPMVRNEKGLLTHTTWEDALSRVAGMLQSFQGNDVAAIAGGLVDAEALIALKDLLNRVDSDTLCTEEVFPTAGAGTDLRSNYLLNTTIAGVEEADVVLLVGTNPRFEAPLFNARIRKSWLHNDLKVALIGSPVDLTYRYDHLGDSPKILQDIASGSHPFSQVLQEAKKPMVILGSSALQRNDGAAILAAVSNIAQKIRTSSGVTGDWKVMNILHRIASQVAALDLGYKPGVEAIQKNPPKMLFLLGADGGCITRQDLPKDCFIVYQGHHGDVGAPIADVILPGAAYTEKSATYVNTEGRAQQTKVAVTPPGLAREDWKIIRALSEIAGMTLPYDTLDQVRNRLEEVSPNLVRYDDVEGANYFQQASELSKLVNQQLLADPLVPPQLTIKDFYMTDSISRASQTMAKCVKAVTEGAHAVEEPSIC
Sequence of bovine heart mitochondrial complex I (P03887 whole entry): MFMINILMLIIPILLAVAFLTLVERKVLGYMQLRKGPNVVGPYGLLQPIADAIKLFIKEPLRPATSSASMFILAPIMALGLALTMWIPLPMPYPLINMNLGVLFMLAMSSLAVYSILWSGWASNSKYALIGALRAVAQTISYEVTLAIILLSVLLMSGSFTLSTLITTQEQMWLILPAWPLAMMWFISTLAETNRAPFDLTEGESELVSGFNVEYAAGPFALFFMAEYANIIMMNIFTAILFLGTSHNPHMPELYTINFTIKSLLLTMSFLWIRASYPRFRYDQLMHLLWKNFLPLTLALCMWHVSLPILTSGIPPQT
Sequence of bovine heart mitochondrial complex I (P42028 37-212, further chain): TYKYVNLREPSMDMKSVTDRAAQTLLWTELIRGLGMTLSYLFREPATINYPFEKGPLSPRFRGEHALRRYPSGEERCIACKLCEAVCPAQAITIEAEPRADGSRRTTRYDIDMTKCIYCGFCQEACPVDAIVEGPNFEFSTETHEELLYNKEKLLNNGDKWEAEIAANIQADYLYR

Compound	Effect on Aβ 1-42 induced cytotoxicity (in words) [1]	Preservation of mitochondrial membrane potential Δψm (in words) (FRDA lymphocytes)	viability at 5 µM [2] [%]	IC50 ([3]; read-out: Complex I inhibition IC50) [µM]	Emax ([3]; read-out: Complex I inhibition Imax) [%]
COC1=C2C[C@@H](C)C[C@H](OC)[C@H](O)[C@@H](C)/C=C(\C)[C@H](OC(N)=O)[C@@H](OC)/C=C\C=C(/C)C(=O)NC(=CC1=O)C2=O [geldanamycin, reference compound]	increased cytotoxicity	–	–	–	–
CCCCCCCCCCCCCC1=C(OC)C(=O)C=C(NCCCC(=O)OCCCC)C1=O [Compound 15, Butyl 4-(4-methoxy-3,6-dioxo-5-tridecylcyclohexa-1,4-dienylamino)butanoate]	–	prevented the loss of Δψm	82 ± 2.9	98 ± 8	≥ 60
